Reference: patent publication US20040180104A1, “Herbal composition for preventing and/or treating conditions in associated with depression” (priority 2003, published 2004)

Tested on: duration of immobility (despair) in rodents
Experiment: Forced Swimming Test (FST)
Format: in vivo
Conditions: male BALB mice, imipramine
Description: Rodents are placed individually into an transparent acrylic cuboid containing 15 cm (for the mice) or 30 cm (for the rats) of water at 24+1° C. for 6 minutes. The durations of struggling, active movement and immobility in the test is recorded by an automatic device. A 15 minutes pre-test was performed 20-24 hours prior to the test. The duration of immobility is used as a parameter of despair in the rodents.
160-250 g of male Wistar rats were purchased from NSC (National Science Council, Taipei Taiwan). The animals were placed at constant ambient temperature (25±1° C.) with food and water available and on a 12:12-h LD cycle (lights on at 06:00, off at 18:00.)
The FST test as mentioned herein was performed.

CN(C)CCCN1c2ccccc2CCc2ccccc21 [Imipramine]
duration of immobility (in words): reduction in the duration of immobility
